# Reference: patent US8247211B2, “Glycopeptide antibiotics” (American Cyanamid Company, priority 2001, dated 2012)
# How the values were obtained:
# Test in all cases: In vitro antibacterial evaluation: minimum inhibitory concentration (MIC), broth dilution method
# Type in all cases: cell-based
# [1] = test system: Staphylococcus sp.
# In short: (§1)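 First, organisms are seeded at 5×10^5 CFU/mL into Muller-Hinton II […]. Next, antibiotic is applied across 64-0.06 μg/mL by broth dilution (NCCLS M7-A2). Finally, the lowest inhibitory concentration is recorded as MIC.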
# [2] = test system: Enterococcus sp.; conditions: 18 hours at 35° C.
# In short: as §1
# [3] = test system: Streptococcus sp.; conditions: 18 hours at 35° C.
# In short: as §1
# [4] = test system: Escherichia coli; conditions: 18 hours at 35° C.
# In short: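 Inoculum: 5×10^5 CFU/mL. Range: 64-0.06 μg/mL. Medium: Muller-Hinton II […]; NCCLS M7-A2 broth dilution. Endpoint: lowest concentration inhibiting growth. Strains include methicillin-, penicillin- and/or vancomycin-resistant clinical isolates.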
# [5] = Enterococcus faecalis (ATCC 29212)
# [6] = Enterococcus faecalis (GC 2242)
# [7] = Enterococcus faecalis (GC 2691)
# [8] = Enterococcus faecalis (GC 3059)
# [9] = Enterococcus faecalis (GC 4552)
# [10] = Enterococcus faecalis (GC 4553)
# [11] = Enterococcus faecalis (GC 4554)
# [12] = Enterococcus faecalis (GC 6189)
# [13] = broth dilution, inoculum 5×10^5 CFU/mL
# [14] = Streptococcus agalactiae (GC 4564)
# [15] = Streptococcus pneumoniae (ATCC 6301)
# [16] = Streptococcus pneumoniae (GC 1894)
# [17] = Streptococcus pneumoniae (GC 4565)
# [18] = Streptococcus pyogenes (GC 4563)
smiles,measurement,setting,value
"COc1ccc(COCC2OC(OC3C(CO)OC(Oc4ccc(CC5NC(=O)C(C(C)c6ccccc6)NC(=O)CNC(=O)C(CO)NC(=O)C(C(O)C6CNC(=N)N6C6OC(CO)C(O)C(O)C6O)NC(=O)C(C(O)C6CNC(=N)N6)NC5=O)cc4)C(O)C3O)C(O)C(O)C2O)c2ccccc12 (stereo not drawn) [Example 240, Cyclo[glycyl-β-methylphenylalanyl-O-[4-O-[6-O-[(4-methoxy-1-naphthyl)methyl]hexo-pyranosyl]hexopyranosyl]tyrosyl-3-(2-iminoimidazolidin-4-yl)seryl-3-(3-hexopyranosyl-2-iminoimidazolidin-4-yl)serylseryl]]",MIC Coagulase Negative Staphylococcus (GC 4547),"[1]; Coagulase Negative Staphylococcus (GC 4547), 18 hours at 35° C.",4 µg/mL
same,MIC Coagulase Negative Staphylococcus (GC 4548),"[1]; Coagulase Negative Staphylococcus (GC 4548), 18 hours at 35° C.",2 µg/mL
same,MIC Coagulase Negative Staphylococcus (GC 4549),"[1]; Coagulase Negative Staphylococcus (GC 4549), 18 hours at 35° C.",2 µg/mL
same,MIC Coagulase Negative Staphylococcus (GC 4551),"[1]; Coagulase Negative Staphylococcus (GC 4551), 18 hours at 35° C.",2 µg/mL
same,MIC Coagulase Negative Staphylococcus (GC 6257),"[1]; Coagulase Negative Staphylococcus (GC 6257), 18 hours at 35° C.",2 µg/mL
same,MIC Staphylococcus aureus (ATCC 29213),"[1]; Staphylococcus aureus (ATCC 29213), 18 hours at 35° C.",4 µg/mL
same,MIC Staphylococcus aureus (GC 1131),"[1]; Staphylococcus aureus (GC 1131), 18 hours at 35° C.",4 µg/mL
same,MIC Staphylococcus aureus (GC 3051),"[1]; Staphylococcus aureus (GC 3051), 18 hours at 35° C.",0.5 µg/mL
same,MIC Staphylococcus aureus (GC 3053),"[1]; Staphylococcus aureus (GC 3053), 18 hours at 35° C.",4 µg/mL
same,MIC Staphylococcus aureus (GC 4541),"[1]; Staphylococcus aureus (GC 4541), 18 hours at 35° C.",1 µg/mL
same,MIC Staphylococcus aureus (GC 4542),"[1]; Staphylococcus aureus (GC 4542), 18 hours at 35° C.",2 µg/mL
same,MIC Staphylococcus aureus (GC 4544),"[1]; Staphylococcus aureus (GC 4544), 18 hours at 35° C.",4 µg/mL
same,MIC Staphylococcus aureus (GC 4545),"[1]; Staphylococcus aureus (GC 4545), 18 hours at 35° C.",4 µg/mL
same,MIC Staphylococcus aureus-SMITH (GC 4543),"[1]; Staphylococcus aureus-SMITH (GC 4543), 18 hours at 35° C.",2 µg/mL
same,MIC Staphylococcus haemolyticus (GC 4546),"[1]; Staphylococcus haemolyticus (GC 4546), 18 hours at 35° C.",2 µg/mL
same,MIC Enterococcus avium (GC 4558),[2]; Enterococcus avium (GC 4558),4 µg/mL
same,MIC Enterococcus faecalis (ATCC 29212),[2]; [5],16 µg/mL
same,MIC Enterococcus faecalis (GC 2242),[2]; [6],16 µg/mL
same,MIC Enterococcus faecalis (GC 2691),[2]; [7],8 µg/mL
same,MIC Enterococcus faecalis (GC 3059),[2]; [8],8 µg/mL
same,MIC Enterococcus faecalis (GC 4552),[2]; [9],16 µg/mL
same,MIC Enterococcus faecalis (GC 4553),[2]; [10],16 µg/mL
same,MIC Enterococcus faecalis (GC 4554),[2]; [11],16 µg/mL
same,MIC Enterococcus faecalis (GC 6189),[2]; [12],8 µg/mL
same,MIC Enterococcus faecium (GC 2243),[2]; Enterococcus faecium (GC 2243),16 µg/mL
same,MIC Enterococcus faecium (GC 4556),[2]; Enterococcus faecium (GC 4556),16 µg/mL
same,MIC Enterococcus faecium (GC 4557),[2]; Enterococcus faecium (GC 4557),2 µg/mL
same,MIC Enterococcus faecalis (GC 2242),[2]; [13],16 µg/mL
same,MIC Enterococcus faecalis (GC 2691),[2]; [13],8 µg/mL
same,MIC Enterococcus faecalis (GC 3059),[2]; [13],8 µg/mL
same,MIC Streptococcus agalactiae (GC 4564),[3]; [14],0.5 µg/mL
same,MIC Streptococcus pneumoniae (ATCC 6301),[3]; [15],<0.12 µg/mL
same,MIC Streptococcus pneumoniae (GC 1894),[3]; [16],<0.12 µg/mL
same,MIC Streptococcus pneumoniae (GC 4565),[3]; [17],0.25 µg/mL
same,MIC Streptococcus pyogenes (GC 4563),[3]; [18],0.5 µg/mL
same,MIC Streptococcus agalactiae (GC 4564),[3]; [13],0.5 µg/mL
same,MIC Streptococcus pneumoniae (ATCC 6301),[3]; [13],<0.12 µg/mL
same,MIC Streptococcus pneumoniae (GC 1894),[3]; [13],<0.12 µg/mL
same,MIC Streptococcus pneumoniae (GC 4565),[3]; [13],0.25 µg/mL
same,MIC Streptococcus pyogenes (GC 4563),[3]; [13],0.5 µg/mL
same,MIC Escherichia coli (GC 4560),[4],2 µg/mL
"CC(c1ccc(Cl)cc1)C1NC(=O)CNC(=O)C(CO)NC(=O)C(C(O)C2CNC(=N)N2C2OC(CO)C(O)C(O)C2O)NC(=O)C(C(O)C2CNC(=N)N2)NC(=O)C(Cc2ccc(OC3OC(CO)C(OC4OC5COC(c6ccccc6)OC5C(O)C4O)C(O)C3O)cc2)NC1=O (stereo not drawn) [Example 195, Cyclo[glycyl-4-chloro-β-methylphenylalanyl-O-[4-O-(4,6-O-benzylidenehexopyranosyl)-hexopyranosyl]tyrosyl-3-(2-iminoimidazolidin-4-yl)seryl-3-(3-hexopyranosyl-2-iminoimidazolidin-4-yl)serylseryl]]",MIC Staphylococcus aureus (ATCC 29213),[1]; strain ATCC 29213,0.5 µg/mL
same,MIC Staphylococcus aureus (GC 1131),[1]; strain GC 1131,0.5 µg/mL
same,MIC Staphylococcus aureus (GC 3051),[1]; strain GC 3051,0.5 µg/mL
same,MIC Staphylococcus aureus (GC 3053),[1]; strain GC 3053,0.5 µg/mL
same,MIC Staphylococcus aureus (GC 4541),[1]; strain GC 4541,0.5 µg/mL
same,MIC Staphylococcus aureus (GC 4542),[1]; strain GC 4542,0.5 µg/mL
same,MIC Staphylococcus aureus-SMITH (GC 4543),[1]; strain GC 4543,0.5 µg/mL
same,MIC Staphylococcus aureus (GC 4544),[1]; strain GC 4544,0.5 µg/mL
same,MIC Staphylococcus aureus (GC 4545),[1]; strain GC 4545,0.5 µg/mL
same,MIC Staphylococcus haemolyticus (GC 4546),[1]; strain GC 4546,2 µg/mL
same,MIC Coagulase Negative Staphylococcus (GC 4547),[1]; strain GC 4547,4 µg/mL
same,MIC Coagulase Negative Staphylococcus (GC 4548),[1]; strain GC 4548,2 µg/mL
same,MIC Coagulase Negative Staphylococcus (GC 4549),[1]; strain GC 4549,1 µg/mL
same,MIC Coagulase Negative Staphylococcus (GC 4551),[1]; strain GC 4551,4 µg/mL
same,MIC Coagulase Negative Staphylococcus (GC 6257),[1]; strain GC 6257,2 µg/mL
same,MIC Enterococcus avium (GC 4558),[2]; Enterococcus avium (GC 4558),0.5 µg/mL
same,MIC Enterococcus faecalis (ATCC 29212),[2]; [5],0.5 µg/mL
same,MIC Enterococcus faecalis (GC 2242),[2]; [6],0.5 µg/mL
same,MIC Enterococcus faecalis (GC 2691),[2]; [7],0.5 µg/mL
same,MIC Enterococcus faecalis (GC 3059),[2]; [8],0.5 µg/mL
same,MIC Enterococcus faecalis (GC 4552),[2]; [9],0.5 µg/mL
same,MIC Enterococcus faecalis (GC 4553),[2]; [10],0.5 µg/mL
same,MIC Enterococcus faecalis (GC 4554),[2]; [11],0.5 µg/mL
same,MIC Enterococcus faecalis (GC 6189),[2]; [12],0.5 µg/mL
same,MIC Enterococcus faecium (GC 2243),[2]; Enterococcus faecium (GC 2243),0.5 µg/mL
same,MIC Enterococcus faecium (GC 4556),[2]; Enterococcus faecium (GC 4556),0.5 µg/mL
same,MIC Enterococcus faecium (GC 4557),[2]; Enterococcus faecium (GC 4557),0.5 µg/mL
same,MIC Enterococcus avium (GC 4558),[2]; [13],0.5 µg/mL
same,MIC Enterococcus faecalis (ATCC 29212),[2]; [13],0.5 µg/mL
same,MIC Enterococcus faecalis (GC 2242),[2]; [13],0.5 µg/mL
same,MIC Enterococcus faecalis (GC 2691),[2]; [13],0.5 µg/mL
same,MIC Enterococcus faecalis (GC 3059),[2]; [13],0.5 µg/mL
same,MIC Enterococcus faecalis (GC 4552),[2]; [13],0.5 µg/mL
same,MIC Enterococcus faecalis (GC 4553),[2]; [13],0.5 µg/mL
same,MIC Enterococcus faecalis (GC 4554),[2]; [13],0.5 µg/mL
same,MIC Enterococcus faecalis (GC 6189),[2]; [13],0.5 µg/mL
same,MIC Enterococcus faecium (GC 2243),[2]; [13],0.5 µg/mL
same,MIC Enterococcus faecium (GC 4556),[2]; [13],0.5 µg/mL
same,MIC Enterococcus faecium (GC 4557),[2]; [13],0.5 µg/mL
same,MIC Streptococcus agalactiae (GC 4564),[3]; [14],0.5 µg/mL
same,MIC Streptococcus pneumoniae (ATCC 6301),[3]; [15],0.12 µg/mL
same,MIC Streptococcus pneumoniae (GC 1894),[3]; [16],0.12 µg/mL
same,MIC Streptococcus pneumoniae (GC 4565),[3]; [17],0.12 µg/mL
same,MIC Streptococcus pyogenes (GC 4563),[3]; [18],0.12 µg/mL
same,MIC Streptococcus agalactiae (GC 4564),[3]; [13],0.5 µg/mL
same,MIC Streptococcus pneumoniae (ATCC 6301),[3]; [13],0.12 µg/mL
same,MIC Streptococcus pneumoniae (GC 1894),[3]; [13],0.12 µg/mL
same,MIC Streptococcus pneumoniae (GC 4565),[3]; [13],0.12 µg/mL
same,MIC Streptococcus pyogenes (GC 4563),[3]; [13],0.12 µg/mL
same,MIC Escherichia coli (ATCC 25922),[4]; Escherichia coli (ATCC 25922),>0.5 µg/mL
same,MIC Escherichia coli (GC 4559),[4]; Escherichia coli (GC 4559),>0.5 µg/mL
same,MIC Escherichia coli (GC 4560),[4],0.5 µg/mL
